System: TF-1 cells
Test: Post-thaw recovery of TF-1 cells by membrane integrity assay (SYTO 13/ethidium bromide) after cryopreservation
Type: cell-based, human
Conditions: TF-1 cells in 10% DMSO/RPMI, conventional cooling at a constant rate of 0.9° C./min, then liquid nitrogen, thawed
Experimental: FIG. 12. Membrane integrity of TF-1 cells in 10% DMSO cooled at 1° C./min to various subzero temperatures and then either thawed directly (upper curve) or cooled rapidly at 325° C./min in liquid nitrogen (lower curve) before being thawed.
TF-1 cells (ATCC, Manassas, Va.) were grown at 37° C. in 5% CO2 in RPMI 1640 Medium Modified (ATCC) with 10% fetal bovine serum (FBS) (ATCC), and supplemented with 2 ng/mL recombinant human GM-CSF (Stemcell Technologies, Vancouver, Canada). Cells were maintained between 0.1×10^6 and 1×10^6 cells/mL, according to ATCC guidelines. Prior to experiments, cells were washed twice with serum-free RPMI media and incubated overnight. […]
Cell viability was assessed by a membrane integrity assay. […]
The Syto/EB stain was prepared using 40 μL of 2.5 mM EB stock solution and 10 μL of 5 mM Syto® 13 stock solution mixed with 350 μL 1× phosphate-buffered saline (PBS). […] Fluorescent images were captured using a Leitz Dialux 22 fluorescence (440-480 nm) microscope (Leitz, Germany) fitted with a PIXERA DiRactor (Pixera Corporation, Los Gatos, Calif., USA) digital camera. The Viability Assessment Program (The Great Canadian Computer Company, Spruce Grove, Canada), which counts red versus green pixels was used to quantify cell membrane integrity from digital images (Jomha, 2003). […]

C[S+](C)[O-] [DMSO, dimethyl sulfoxide]
recovery (membrane integrity) after thawing: 63.7%
